Test results taken from US20240099214A1, “PLANT DEFENCE GENE EXPRESSION” (UPL Corporation Limited, priority 2021, published 2024).

Key:
[1] = tested on: PR protein (gene 12, M69248.1); experiment: qRT-PCR expression of gene 12 in tomato leaves; type: in vivo, Tomato ecotype corbarino; design: key to RQ1 / RQ2 / RQ3 / RQ mean: relative expression normalized to a-tubulin housekeeping gene; conditions: for gene 12 (PR1 protein) expression: laminarin treatment group not specified
Method: (§1) Tomato ecotype “corbarino” reported to be susceptible to TSWV infection was used in the experiment. Plants were grown in pots in a climatic chamber with a photoperiod of 16/8 hour at 25° C.
(§2) The viral strain (TSWV PV PV-0393) was utilized in the experiment. The virus was mechanically inoculated and propagated on tomato “corbarino”. The inoculum was prepared in an ice-cooled mortar grounding 1 gr of infected tomato tissue in 10 ml of Na-phosphate buffer 0.01M. The fresh prepared inoculum was stored in ice before use. Tomato plants at BBCH16 were dusted with Carborundum 600 mesh and selected leaves were rubbed with some droplets of inoculum. After 5 min. plants were sprayed with sterile water to remove the excess of inoculum and preserve the cell turgor.
(§3) Four treatments were compared: i) Mock inoculated; ii) TSWV; iii) 0.25% Laminarin; iv) 0.25% Laminarin+TSWV. In the last treatment the virus was inoculated 24 hrs after the laminarin application.
(§4) Total RNA was extracted from systemic infected tomato leaves by using the Quick-RNA Plant Kit (Zymo Research) following the manufacturer instructions. The extractions were carried out using three plants after 12 h, 24 h, 48 h, 72 h, 7 days after inoculation. Leaves were instantly frozen in liquid nitrogen after cutting to avoid any deterioration of the sample as well as any defense reaction. The RNA concentration was quantified by measuring the absorbance at 260 nm using a Nanodrop 2000 (Thermofisher). The purity of all of the RNA samples was assessed at an absorbance ratio of OD260/280 and OD260/230, while its structural integrity was checked by agarose gel electrophoresis. Only high-quality RNA with OD 260/280 and OD 260/230>2 was used for subsequent steps. Single-stranded cDNA was synthesized from 1 μg of total RNA using an iScript™ Select cDNA Synthesis Kit and random hexamers as primers (Bio-Rad, Milan, Italy), according to the manufacturer's instructions. Three biological replicates were created from the 3 leaves collected to test 15 genes. Alpha tubulin was used as reference gene.
(§5) qPCR reactions were performed with BioRad (Applied Biosystems, Foster City, CA, USA) using SYBR R Green. Each reaction was performed in 20 μl containing 10 μl of 2× Power SYBR Green PCR Master Mix (Life Technologies), 0.2-0.3 μM primers and cDNA samples diluted 1:20. Each qPCR reaction was performed in triplicate. Reactions were run using the cycling parameter described previously (Reid et al., 2006) and the qPCR data were analyzed by the Ct method (Pfaffl, 2001). In order to analyze the qPCR data, a-tubulin gene was used as housekeeping to determine the relative expression level of the other genes analyzed in this work. For the determination of qPCR efficiency of each primer pairs, a standard curve was performed using the following cDNA dilutions: 1:4, 1:16, 1:64; 1:256 and 1:1024. Every measurement was made in triplicate. The corresponding qPCR efficiencies (E) were calculated for every primer pair with the software 7300 System SDS software (Applied Biosystems, Foster City, CA, USA) according to the equation E=(10−1/slope−1)×100 (Rutledge and Stewart, 2008).
(§6) The significance of the differences between the gene expressions levels were compared by one-way ANOVA (p=0.01) and the means were separated by Tukey post-hoc test using SPSS ver.26 ([…]).

[2] = tested on: Subtilisin-like protease-like (gene 9, Solyc01g087800.2); experiment: qRT-PCR expression of gene 9 in tomato leaves; type: in vivo, Tomato ecotype corbarino; design: key to RQ1 / RQ2 / RQ3 / RQ mean: relative expression normalized to a-tubulin housekeeping gene
Method: as §1, §2, §3, §4, §5, §6

[3] = Gene_12, 24 hr, treatment Laminarin
[4] = Gene_12, 24 hr, treatment Laminarin + virus
[5] = Gene_12, 48 hr, treatment Laminarin
[6] = Gene_12, 48 hr, treatment Laminarin + virus
[7] = Gene_12, 72 hr, treatment Laminarin
[8] = Gene_12, 72 hr, treatment Laminarin + virus

Question: What does the source list for laminarin?
Answer: RQ1 ([1]; 12 hr, Laminarin + virus): 10.097; RQ2 ([1]; 12 hr, Laminarin + virus): 0.9948; RQ3 ([1]; 12 hr, Laminarin + virus): 11.722; RQ mean ([1]; 12 hr, Laminarin + virus): 10.589; RQ1 ([1]; 12 hr, Laminarin alone): 0.9616; RQ2 ([1]; 12 hr, Laminarin alone): 11.039; RQ3 ([1]; 12 hr, Laminarin alone): 10.693; RQ mean ([1]; 12 hr, Laminarin alone): 10.449; gene 12 (PR1 protein) expression ([1]; 48 hr post treatment, not statistically significant): highly overexpressed; gene 12 (PR1 protein) expression ([1]; 72 hr, statistically significant): overexpression of gene 12 is slightly reduced; activation of systemic acquired resistance (SAR), inferred from gene 12 overexpression ([1]; 72 hr, tomato): activate the SAR; RQ1 [1, 3]: 11.678; RQ2 [1, 3]: 11.217; RQ3 [1, 3]: 10.555; RQ mean [1, 3]: 11.150; RQ1 [1, 4]: 0.9321; RQ2 [1, 4]: 11.344; RQ3 [1, 4]: 11.191; RQ mean [1, 4]: 10.619; RQ1 [1, 5]: 46.753; RQ3 [1, 5]: 31.171; RQ mean [1, 5]: 60.670; RQ1 [1, 6]: 42.751; RQ2 [1, 6]: 56.022; RQ3 [1, 6]: 37.918; RQ mean [1, 6]: 45.564; RQ1 [1, 7]: 44.543; RQ2 [1, 7]: 23.924; RQ3 [1, 7]: 31.675; RQ mean [1, 7]: 33.381; RQ1 [1, 8]: 36.333; RQ2 [1, 8]: 29.356; RQ3 [1, 8]: 21.584; RQ mean [1, 8]: 29.091; RQ1 ([2]; 12 hr, Laminarin + virus): 0.9838; RQ2 ([2]; 12 hr, Laminarin + virus): 0.8556; RQ3 ([2]; 12 hr, Laminarin + virus): 10.797; RQ mean ([2]; 12 hr, Laminarin + virus): 0.9730; RQ1 ([2]; 12 hr, Laminarin alone): 0.8527; RQ2 ([2]; 12 hr, Laminarin alone): 0.8398; RQ3 ([2]; 12 hr, Laminarin alone): 10.240; RQ mean ([2]; 12 hr, Laminarin alone): 0.9055; RQ1 ([2]; 24 hr, Laminarin + virus): 0.8394; RQ2 ([2]; 24 hr, Laminarin + virus): 10.098; RQ3 ([2]; 24 hr, Laminarin + virus): 11.565; RQ mean ([2]; 24 hr, Laminarin + virus): 10.019; RQ1 ([2]; 24 hr, Laminarin alone): 13.867; RQ2 ([2]; 24 hr, Laminarin alone): 0.9303; RQ3 ([2]; 24 hr, Laminarin alone): 10.466; RQ mean ([2]; 24 hr, Laminarin alone): 11.212; gene 9 expression compared to TSWV treatment ([2]; 48 hr, 0.25% laminarin + TSWV inoculated 24 hrs later): inverted; gene 9 expression compared to TSWV treatment ([2]; 48 hr, 0.25% laminarin alone): inverted; RQ1 ([2]; 48 hr, Laminarin + virus): 15.088; RQ2 ([2]; 48 hr, Laminarin + virus): 17.637; RQ3 ([2]; 48 hr, Laminarin + virus): 13.474; RQ mean ([2]; 48 hr, Laminarin + virus): 15.400; RQ1 ([2]; 48 hr, Laminarin alone): 16.481; RQ2 ([2]; 48 hr, Laminarin alone): 15.436; RQ3 ([2]; 48 hr, Laminarin alone): 13.847; RQ mean ([2]; 48 hr, Laminarin alone): 15.255; RQ1 ([2]; 72 hr, Laminarin + virus): 0.9998; RQ2 ([2]; 72 hr, Laminarin + virus): 10.127; RQ3 ([2]; 72 hr, Laminarin + virus): 0.9578; RQ mean ([2]; 72 hr, Laminarin + virus): 0.9901; RQ1 ([2]; 72 hr, Laminarin alone): 16.204; RQ2 ([2]; 72 hr, Laminarin alone): 0.7923; RQ3 ([2]; 72 hr, Laminarin alone): 18.354; RQ mean ([2]; 72 hr, Laminarin alone): 14.160; gene 9 expression ([2]; 72 hr, after the treatment with laminarin): no clear overexpression
